Test results as given in PubChem BioAssay (NCI).
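Results reflect a 48-hour exposure of cells in 96-well plates to compound at five concentrations. GI50 is the concentration that inhibits growth by half. TGI marks complete inhibition of growth.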

Legend:
Experiment in all cases: DTP human tumour cell line panel, 48 h; in the data active means GI50 below about 0.43 µM; inactive means the rest
U251 CNS = test system: U251 CNS
SR leukemia = test system: SR leukemia
SF-295 CNS = test system: SF-295 CNS
HCC-2998 colon = test system: HCC-2998 colon
MALME-3M melanoma = test system: MALME-3M melanoma
UACC-257 melanoma = test system: UACC-257 melanoma
OVCAR-4 ovarian = test system: OVCAR-4 ovarian
HOP-62 NSCLC = test system: HOP-62 NSCLC
OVCAR-8 ovarian = test system: OVCAR-8 ovarian
NCI-H460 lung = test system: NCI-H460 lung
RXF 393 renal = test system: RXF 393 renal
SW-620 colon = test system: SW-620 colon
SNB-75 CNS = test system: SNB-75 CNS
SK-MEL-5 melanoma = test system: SK-MEL-5 melanoma
HS 578T breast = test system: HS 578T breast
SK-OV-3 ovarian = test system: SK-OV-3 ovarian
CCRF-CEM leukemia = test system: CCRF-CEM leukemia
HCT-116 colon = test system: HCT-116 colon
SF-539 CNS = test system: SF-539 CNS
M14 melanoma = test system: M14 melanoma
OVCAR-5 ovarian = test system: OVCAR-5 ovarian
T-47D breast = test system: T-47D breast
MDA-MB-435 = test system: MDA-MB-435
EKVX NSCLC = test system: EKVX NSCLC
UO-31 renal = test system: UO-31 renal
MDA-MB-231 breast = test system: MDA-MB-231 breast
HCT-15 colon = test system: HCT-15 colon
MOLT-4 leukemia = test system: MOLT-4 leukemia
CAKI-1 renal = test system: CAKI-1 renal
A498 renal = test system: A498 renal
NCI-H226 lung = test system: NCI-H226 lung
HL-60(TB) leukemia = test system: HL-60(TB) leukemia
A549 NSCLC = test system: A549 NSCLC
SF-268 CNS = test system: SF-268 CNS
PC-3 prostate = test system: PC-3 prostate
DU-145 prostate = test system: DU-145 prostate
IGROV1 ovarian = test system: IGROV1 ovarian
MCF7 breast = test system: MCF7 breast
SK-MEL-2 melanoma = test system: SK-MEL-2 melanoma
786-0 renal = test system: 786-0 renal
TK-10 renal = test system: TK-10 renal
HT29 colon = test system: HT29 colon
ACHN renal = test system: ACHN renal
NCI/ADR-RES ovarian = test system: NCI/ADR-RES ovarian
NCI-H522 lung = test system: NCI-H522 lung
RPMI-8226 leukemia = test system: RPMI-8226 leukemia
HOP-92 NSCLC = test system: HOP-92 NSCLC
K-562 leukemia = test system: K-562 leukemia
SNB-19 CNS = test system: SNB-19 CNS
SK-MEL-28 melanoma = test system: SK-MEL-28 melanoma
NCI-H23 lung = test system: NCI-H23 lung
COLO 205 colon = test system: COLO 205 colon
BT-549 breast = test system: BT-549 breast
LOX IMVI melanoma = test system: LOX IMVI melanoma
SN12C renal = test system: SN12C renal
UACC-62 melanoma = test system: UACC-62 melanoma
KM12 colon = test system: KM12 colon

Oc1cccc2ccc(-c3nnc(SCc4ccc(O)c5ncccc45)o3)nc12
0.707 µM: TGI (HOP-92 NSCLC)
3.81 µM: TGI (MALME-3M melanoma)
7.32 µM: TGI (A498 renal)
> 20.7 µM: TGI (BT-549 breast)
> 22.6 µM: TGI (SNB-75 CNS)
79.5 µM: TGI (M14 melanoma)
> 40.2 µM: TGI (HOP-62 NSCLC)
4.96 µM: TGI (COLO 205 colon)
1.55 µM: TGI (SK-MEL-5 melanoma)
> 32.4 µM: TGI (MCF7 breast)
active: GI50 (U251 CNS) 0.103 µM | GI50 (SR leukemia) 0.338 µM | GI50 (SF-295 CNS) 0.315 µM | GI50 (MALME-3M melanoma) 0.365 µM | GI50 (UACC-257 melanoma) 0.413 µM | GI50 (HOP-62 NSCLC) 0.369 µM | GI50 (OVCAR-8 ovarian) 0.302 µM | GI50 (NCI-H460 lung) 0.0393 µM | GI50 (RXF 393 renal) 0.35 µM | GI50 (SNB-75 CNS) 0.177 µM | GI50 (SK-MEL-5 melanoma) 0.326 µM | GI50 (HS 578T breast) 0.181 µM | GI50 (CCRF-CEM leukemia) 0.329 µM | GI50 (HCT-116 colon) 0.071 µM | GI50 (SF-539 CNS) 0.275 µM | GI50 (M14 melanoma) 0.332 µM | GI50 (MDA-MB-435) 0.294 µM | GI50 (UO-31 renal) 0.299 µM | GI50 (HCT-15 colon) 0.158 µM | GI50 (A549 NSCLC) 0.204 µM | GI50 (SF-268 CNS) 0.226 µM | GI50 (PC-3 prostate) 0.175 µM | GI50 (DU-145 prostate) 0.117 µM | GI50 (MCF7 breast) 0.367 µM | GI50 (ACHN renal) 0.419 µM | GI50 (RPMI-8226 leukemia) 0.266 µM | GI50 (HOP-92 NSCLC) 0.173 µM | GI50 (K-562 leukemia) 0.147 µM | GI50 (SNB-19 CNS) 0.273 µM | GI50 (NCI-H23 lung) 0.268 µM | GI50 (BT-549 breast) 0.11 µM | GI50 (LOX IMVI melanoma) 0.12 µM | GI50 (SN12C renal) 0.28 µM
2.7 µM: TGI (SK-MEL-2 melanoma)
7.24 µM: TGI (UO-31 renal)
> 100 µM: TGI (U251 CNS) | TGI (SR leukemia) | TGI (HCC-2998 colon) | TGI (OVCAR-4 ovarian) | TGI (OVCAR-8 ovarian) | TGI (SW-620 colon) | TGI (CCRF-CEM leukemia) | TGI (HCT-116 colon) | TGI (SF-539 CNS) | TGI (OVCAR-5 ovarian) | TGI (T-47D breast) | TGI (MDA-MB-435) | TGI (EKVX NSCLC) | TGI (MDA-MB-231 breast) | TGI (HCT-15 colon) | TGI (MOLT-4 leukemia) | TGI (CAKI-1 renal) | TGI (NCI-H226 lung) | TGI (HL-60(TB) leukemia) | TGI (A549 NSCLC) | TGI (SF-268 CNS) | TGI (PC-3 prostate) | TGI (DU-145 prostate) | TGI (IGROV1 ovarian) | TGI (786-0 renal) | TGI (HT29 colon) | TGI (ACHN renal) | TGI (NCI/ADR-RES ovarian) | TGI (RPMI-8226 leukemia) | TGI (K-562 leukemia) | TGI (SNB-19 CNS) | TGI (SK-MEL-28 melanoma) | TGI (NCI-H23 lung) | TGI (LOX IMVI melanoma) | TGI (SN12C renal) | TGI (KM12 colon)
> 25.7 µM: TGI (SF-295 CNS)
> 24.5 µM: TGI (RXF 393 renal)
> 27.1 µM: TGI (TK-10 renal)
11.4 µM: TGI (NCI-H460 lung)
4.51 µM: TGI (UACC-257 melanoma)
19.7 µM: TGI (UACC-62 melanoma)
inactive: GI50 (HCC-2998 colon) 0.643 µM | GI50 (OVCAR-4 ovarian) 2 µM | GI50 (SW-620 colon) 0.452 µM | GI50 (SK-OV-3 ovarian) 0.761 µM | GI50 (OVCAR-5 ovarian) 2.17 µM | GI50 (T-47D breast) 0.428 µM | GI50 (EKVX NSCLC) 0.807 µM | GI50 (MDA-MB-231 breast) 1.65 µM | GI50 (MOLT-4 leukemia) 0.457 µM | GI50 (CAKI-1 renal) 0.428 µM | GI50 (A498 renal) 1.2 µM | GI50 (NCI-H226 lung) 2.41 µM | GI50 (HL-60(TB) leukemia) 0.583 µM | GI50 (IGROV1 ovarian) 0.457 µM | GI50 (SK-MEL-2 melanoma) 0.513 µM | GI50 (786-0 renal) 0.627 µM | GI50 (TK-10 renal) 1.99 µM | GI50 (HT29 colon) 4.91 µM | GI50 (NCI/ADR-RES ovarian) 0.696 µM | GI50 (NCI-H522 lung) 0.44 µM | GI50 (SK-MEL-28 melanoma) 0.492 µM | GI50 (COLO 205 colon) 1.73 µM | GI50 (UACC-62 melanoma) 0.467 µM | GI50 (KM12 colon) 0.432 µM
5.54 µM: TGI (NCI-H522 lung)
5.28 µM: TGI (SK-OV-3 ovarian)
